Results: US9999620B2, “CaMKK-β as a target for treating cancer” (Duke University, priority 2010, dated 2018)

Columns and labels:
[1] = system: CaMKKβ mRNA; experiment: qPCR of CaMKKβ mRNA in prostate cancer cells; type: cell-based, human; conditions: for CaMKKβ mRNA levels: R1881 0.1, 1, 10 nM, 24 h
Method: (§1) FIG. 1. Androgens increase CaMKKβ levels in an AR-dependent manner. LNCaP or VCaP cells were treated for 24 h with vehicle or increasing concentrations of the synthetic androgen R1881 (A—0.1, 1, and 10 nM; B—0.01, 0.1, 1, and 10 nM). A, after treatment, cells were lysed, and RNA was isolated and reversed transcribed. The expression of CaMKKβ was assessed using qPCR. B, after treatment, cells were subjected to western blot analysis and subsequent densitometry (top). CaMKKβ protein levels were normalized to GAPDH loading control. A and B, results are expressed as fold induction over vehicle-treated cells+SE (n=3). *, significant changes from vehicle-treated cells. C, LNCaP cells were transiently transfected with mock or Stealth siRNAs targeting a negative control (siLacZ) or CaMKKβ (#1-3). Two days later, cells were treated for 24 h+/−10 nM R1881. Whole-cell extracts were subjected to western blot analysis and densitometry (top) as described in B. *, significant changes from mock-transfected cells. D, LNCaP cells were transfected as described in C with mock or Stealth siRNAs targeting LacZ or AR and treated for 24 h. The expression of CaMKKβ was assessed as in A using qPCR.
FIG. 9. Identification of the ARE that regulates CaMKKβ expression. A, LNCaP cells were pretreated for 1 h with vehicle or 1 mg/mL cycloheximide followed by vehicle or 10 nM R1881 for 24 h. CaMKKβ or CXCR4 mRNA levels were quantified using qPCR. Results are expressed as fold induction over vehicle (no R1881)-treated cells±SE (n=3). *, significant changes from vehicle-treated cells. B, LNCaP cells were treated with vehicle (V) or 10 nM R1881 for 1 or 4 h. Cross-linked chromatin was immunoprecipitated with indicated antibodies. […]
(§2) RNA isolation, cDNA preparation, and quantitative and standard reverse transcription (RT)-PCR. RNA isolation, cDNA preparation and quantitative RT-PCR (qPCR) were performed as previously described using 36B4 as a control (12). […]

[2] = system: CaMKKβ protein; experiment: Western blot of CaMKKβ protein in prostate cancer cells; type: cell-based, human; conditions: R1881 0.01, 0.1, 1, 10 nM, 24 h
Method: as §1
(§3) Western blot analysis. […] For each sample, protein levels were determined by densitometry using the ImageJ software (NIH) and normalizing to indicated controls.

[3] = system: AR binding region ~2.3 kb upstream of the CaMKKβ transcriptional start site; experiment: Chromatin immunoprecipitation of AR at the CaMKKβ upstream region; type: cell-based, human; conditions: LNCaP; 10 nM R1881 for 1 or 4 h
Method: (§4) FIG. 9. Identification of the ARE that regulates CaMKKβ expression. A, LNCaP cells were pretreated for 1 h with vehicle or 1 mg/mL cycloheximide followed by vehicle or 10 nM R1881 for 24 h. CaMKKβ or CXCR4 mRNA levels were quantified using qPCR. Results are expressed as fold induction over vehicle (no R1881)-treated cells±SE (n=3). *, significant changes from vehicle-treated cells. B, LNCaP cells were treated with vehicle (V) or 10 nM R1881 for 1 or 4 h. Cross-linked chromatin was immunoprecipitated with indicated antibodies. The precipitated DNA was amplified using primers spanning a region identified using ChIP on Chip data as a potential AR-binding site (indicated in top schematic) or a distal upstream region (negative control). The results are presented as percent input±SE (n=3). *, significant changes from IgG controls. C, various enhancer luciferase reporter constructs (depicted in top model) were transfected into LNCaP cells and treated overnight+/−10 nM R1881. After treatment, cells were harvested and assayed for luciferase activity. Luciferase values were normalized to β-galactosidase control. Data are the mean relative light units (RLUs)+SEM for one representative experiment performed in triplicate (n=3). *, significant changes from vehicle-treated cells. […]

[4] = system: LNCaP cells; experiment: Boyden dual chamber migration assay; type: cell-based, human
Method: FIG. 7. CaMKKβ activity in the androgen-mediated migration and invasion of prostate cancer cells. A, LNCaP cells were plated in 96-well plates and grown for 3 d. […] On d 10, cells were lysed and the relative number of cells was measured with the fluorescent DNA binding dye FluoReporter Blue. Each sample was performed in triplicate, and results from a representative experiment are shown. […] Cells were then dissociated and reseeded into the top chamber for a Boyden migration or Matrigel extracellular matrix invasion assay. Fresh medium with the corresponding treatments was added to the top and bottom chambers while either no chemoattractant or 5% FBS (serum) was added to the bottom chamber. After 16 h, migrated cells were fixed, stained and counted in three different microscopic fields and added together. […] C top, LNCaP cells were transfected with indicated siRNAs. […] D right, LNCaP cells stably expressing either GAL4 (control) or CaMKKβ were subjected to a migration assay as described in B using +/-5% FBS as chemoattractant. The results are expressed as mean+SE (n=3). *, significant changes from LNCaP-GAL4 cells. D left, western blot confirming CaMKKβ […]expression. FIG. 11. Androgen-mediated migration occurs through a CaMKKβ-AMPK-dependent pathway. […] Results are expressed as fold induction/phosphorylation over double vehicle-treated cells+SE (n=3). *, significant changes from vehicle-treated cells. […] Results are expressed as fold induction/phosphorylation over LNCaP-GAL4 vehicle-treated cells+SE (n=3). *, significant changes from LNCaP-GAL4 vehicle-treated cells. […] The results are expressed as mean±SE (n=2). *, P<0.05 indicates significant changes from double vehicle-treated cells. ^#, P<0.05 indicates significant decreases from vehicle (no compound C)-treated cells. […] ACC is a direct target of AMPK and thus, was used as a readout of AMPK catalytic activity. […] Results are expressed as fold induction/phosphorylation over double vehicle-treated cells+SE (n=2). *, P<0.05 indicates significant changes from double vehicle-treated cells. […]

[5] = system: distant metastases; conditions: prostate cancer patients, clinical trials; cited from earlier work
[6] = system: circulating tumor cells; conditions: patients having a castration-resistant type cancer; cited from earlier work
[7] = system: AMPK; experiment: Western blot of phospho-ACC (readout of AMPK catalytic activity); type: cell-based, human; conditions: LNCaP; 1 h 1, 10 or 40 mM compound C, overnight +/-10 nM R1881
Method: FIG. 13. AMPK and androgen-mediated prostate cancer cell migration. A, LNCaP cells were pretreated for 1 h with vehicle or increasing concentrations of compound C (10 or 40 mM) prior to overnight treatment+/−10 nM R1881 or 1 mM AICAR. Cells were then subjected to a migration assay as described in FIG. 7. The results are expressed as mean±SE (n=2). *, P<0.05 indicates significant changes from double vehicle-treated cells. ^#, P<0.05 indicates significant decreases from vehicle (no compound C)-treated cells. B, LNCaP cells were pretreated for 1 h with vehicle, 1, 10 or 40 mM compound C prior to overnight treatment+/−10 nM R1881. Cell lysates were then subjected to western blot analysis and subsequent densitometry (top). ACC is a direct target of AMPK and thus, was used as a readout of AMPK catalytic activity. Phospho-ACC (p-ACC) levels were normalized to total ACC. Results are expressed as fold induction/phosphorylation over double vehicle-treated cells+SE (n=2). *, P<0.05 indicates significant changes from double vehicle-treated cells. […]
as §3

[8] = system: CXCR4 mRNA; experiment: qPCR of CXCR4 mRNA in LNCaP cells; type: cell-based, human; conditions: 1 h 1 mg/mL cycloheximide, then 10 nM R1881 24 h
Method: as §4, with “control.” for “control. Data are the mean relative light units (RLUs)+SEM for one representative experiment performed in triplicate (n=3). *, significant changes from vehicle-treated cells.”
as §2

With `C[C@]1(O)CC[C@H]2[C@@H]3CCC4=CC(=O)CCC4=C3C=C[C@@]21C` [R1881, Methyltrienolone] the “CaMKKβ mRNA levels” value ([1]; LNCaP) was “increased in a dose-dependent manner”, the “CaMKKβ mRNA levels” value ([1]; VCaP) was “increased in a dose-dependent manner” and the CaMKKβ protein levels ([2]; LNCaP) was “dose-dependent increase”. For the same compound, the CaMKKβ protein levels ([2]; VCaP) was “dose-dependent increase” and the “AR recruitment to the CaMKKβ upstream region” value [3] was “recruited to this region of the promoter within one hour”.

With `NC(=O)c1ncn([C@@H]2O[C@H](CO)[C@@H](O)[C@H]2O)c1N` [AICAR, 5-aminoimidazole-4-carboxamide 1-b-D-ribo-furanoside] the “cell migration, treatment alone” value ([4]; overnight 1 mM AICAR, no androgen) was “sufficient to increase cell migration”.

For `CC(C)C[C@H](NC(=O)[C@@H](COC(C)(C)C)NC(=O)[C@H](Cc1ccc(O)cc1)NC(=O)[C@H](CO)NC(=O)[C@H](Cc1c[nH]c2ccccc12)NC(=O)[C@H](Cc1cnc[nH]1)NC(=O)[C@@H]1CCC(=O)N1)C(=O)N[C@@H](CCCNC(=N)N)C(=O)N1CCC[C@H]1C(=O)NNC(N)=O` [goserelin], the “incidences of distant metastases” value [5] is given as “reduced incidences of distant metastases”.

For `CNC(=O)c1ccc(N2C(=S)N(c3ccc(C#N)c(C(F)(F)F)c3)C(=O)C2(C)C)cc1F` [MDV3100], the “number of circulating tumor cells in patients” value [6] is given as “decreases the number of circulating tumor cells in approximately half of the treated patients”.

With `c1cc(-c2cnn3cc(-c4ccc(OCCN5CCCCC5)cc4)cnc23)ccn1` [compound C] the androgen-mediated cell migration ([4]; 1 h pretreatment with compound C (10 or 40 mM), overnight 10 nM R1881) was “completely abolished androgen-mediated cell migration” and the “AMPK kinase activity (phospho-ACC levels)” value [7] was “inhibited its kinase activity”.

In the case of `C[C@@H]1C[C@@H]([C@H](O)CC2CC(=O)NC(=O)C2)C(=O)[C@@H](C)C1` [cycloheximide, Cycloheximide], the “R1881-mediated increase in CaMKKβ mRNA levels” value ([1]; LNCaP, 1 h 1 mg/mL cycloheximide, then 10 nM R1881 24 h) is reported as “did not block” and the “expression of secondary androgen target genes (ex. CXCR4)” value [8] is reported as “inhibits the expression of secondary androgen target genes”.
